This note sets out measurements from the NIST ThermoML archive (doi:10.1016/j.fluid.2012.11.030).

Structures are written as SMILES. ± gives the expanded uncertainty stated by the source.

For data set [1] the following is noted: Crystal; DTA.
A short description of data set [2]: Molar enthalpy of transition or fusion. Conditions: Crystal; DSC.

On to `CCCCCCCCCCCCCCCC(=O)OCC` [ethyl hexadecanoate], for which, in data set [1], the Normal melting temperature amounted to 25.08 ± 0.7 °C. In addition, the “Molar enthalpy of transition or fusion” value in data set [2] worked out at 13.3 ± 0.359 kcal/mol.

As for `CCCCCCCCCCCC(=O)OCC` [ethyl dodecanoate], the Normal melting temperature in data set [1] is 0.1 ± 0.7 °C. The “Molar enthalpy of transition or fusion” value in data set [2] is 9.52 ± 0.263 kcal/mol.

As for `CCCCCCCC/C=C\CCCCCCCC(=O)OCC` [ethyl (Z)-9-octadeceneoate], the Normal melting temperature in data set [1] was -19.06 ± 0.7 °C. Also, in data set [2], the “Molar enthalpy of transition or fusion” value came to 11.4 ± 0.311 kcal/mol.
